Source: patent publication US6962920B2, “Pyrimidine derivatives and methods of making and using these derivatives” (Duquesne University of the Holy Ghost, priority 1992, dated 2005)
Where two headings read alike, the source gives them in different places. Values belong to the molecule of their own block, whether it stands above or below them.

How the values were obtained:
Pc DHFR [1] = target: T1, Pc DHFR (Pneumocystis carinii, UniProt P16184); assay: biochemical
T1 sequence (P16184 1-206): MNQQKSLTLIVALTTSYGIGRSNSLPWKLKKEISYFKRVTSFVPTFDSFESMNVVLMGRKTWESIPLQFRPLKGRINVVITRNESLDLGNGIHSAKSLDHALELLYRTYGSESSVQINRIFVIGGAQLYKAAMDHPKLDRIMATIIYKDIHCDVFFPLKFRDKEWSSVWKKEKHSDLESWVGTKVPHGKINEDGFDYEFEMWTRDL

Pc DHFR [2] = target: T1, Pc DHFR; assay type: biochemical; settings: for Selectivity Ratio: RL DHFR/Pc DHFR: Table 7, IC50 RL DHFR divided by IC50 Pc DHFR
Experimental: (§1) The selectivity ratio is a measure of the selectivity of a compound for Pc DHFR or Tg DHFR and is expressed as the IC50 value of the DHFR from rate liver (RL) divided by the IC50 value of either the Pc DHFR or the Tg DHFR, depending on which organism the compounds are being tested against. For example, the selectivity ratio of a compound is calculated by the following formula: [formula]

RL DHFR = target: T2, RL DHFR (Rattus norvegicus, UniProt Q920D2); assay: Inhibition of DHFR from rat liver; assay type: biochemical
T2 construct: Toxoplasmosis gondii (Tg) and rat liver (RL); from tissue; host or cells: rat liver
T2 sequence (Q920D2 1-187): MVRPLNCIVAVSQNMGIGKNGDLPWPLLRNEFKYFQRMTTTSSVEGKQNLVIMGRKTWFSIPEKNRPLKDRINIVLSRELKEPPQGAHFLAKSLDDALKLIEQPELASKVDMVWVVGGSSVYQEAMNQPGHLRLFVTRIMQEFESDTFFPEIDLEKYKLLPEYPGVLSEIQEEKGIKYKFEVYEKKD
Experimental: as §1

Tg DHFR = target: T3, Tg DHFR (Toxoplasma gondii, UniProt Q07422); assay: biochemical; assay type: biochemical; settings: for Selectivity Ratio: RL DHFR/Tg: IC50 RL DHFR divided by IC50 Tg DHFR
T3 sequence (Q07422 1-610): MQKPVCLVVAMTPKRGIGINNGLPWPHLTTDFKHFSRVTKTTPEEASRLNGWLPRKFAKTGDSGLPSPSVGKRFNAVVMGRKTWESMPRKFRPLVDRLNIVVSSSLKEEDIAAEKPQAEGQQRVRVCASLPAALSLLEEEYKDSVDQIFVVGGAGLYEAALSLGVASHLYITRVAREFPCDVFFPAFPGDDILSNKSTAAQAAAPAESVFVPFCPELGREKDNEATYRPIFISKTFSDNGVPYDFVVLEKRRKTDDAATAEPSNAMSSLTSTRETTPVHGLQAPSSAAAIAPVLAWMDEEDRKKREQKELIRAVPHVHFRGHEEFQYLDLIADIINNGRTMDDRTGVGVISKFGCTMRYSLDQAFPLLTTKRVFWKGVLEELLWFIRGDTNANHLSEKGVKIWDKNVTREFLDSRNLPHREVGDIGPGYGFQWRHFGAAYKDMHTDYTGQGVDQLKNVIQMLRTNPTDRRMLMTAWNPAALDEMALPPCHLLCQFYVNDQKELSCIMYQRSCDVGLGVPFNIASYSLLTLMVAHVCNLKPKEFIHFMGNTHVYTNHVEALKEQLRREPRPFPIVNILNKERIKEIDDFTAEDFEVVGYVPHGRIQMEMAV
Experimental: as §1

[3] = Table 7, read-out: Pc DHFR IC50
[4] = Table 7, read-out: RL DHFR IC50
[5] = Table 7, read-out: Tg DHFR IC50
[6] = Table 25, read-out: Inhibitor Concentrations (IC50) rlDHFR
[7] = Table 16, read-out: Pc DHFR IC50
[8] = Table 25, read-out: Inhibitor Concentrations (IC50) pcDHFR
[9] = Table 25, read-out: Inhibitor Concentrations (IC50) tgDHFR
[10] = Table 16, read-out: RL DHFR IC50
[11] = Table 16, read-out: Tg DHFR IC50

SMILES: COc1ccc(NCc2c[nH]c3nc(N)nc(N)c23)cc1OC [Compound 2, 2,4-diamino-5-[(3′,4′-dimethoxyanilino)methyl]pyrrolo[2,3-d]pyrimidine]
IC50 (Pc DHFR [1]; [3]): 119 µM | IC50 (RL DHFR; [4]): 116 µM | IC50 (Tg DHFR; [5]): 4.3 µM

SMILES: COc1ccc(NCc2c[nH]c3nc(N)nc(N)c23)cc1 [Compound 3, 2,4-diamino-5-[(4′-methoxyanilino)methyl]pyrrolo[2,3-d]pyrimidine]
IC50 (Pc DHFR [1]; [3]): 279 µM | Selectivity Ratio: RL DHFR/Pc DHFR (Pc DHFR [2]): 0.23 | IC50 (RL DHFR; [4]): 63 µM | Selectivity Ratio: RL DHFR/Tg (Tg DHFR; Table 7): 10.5 | IC50 (Tg DHFR; [5]): 6 µM

SMILES: CCOc1ccc(OCC)c(NCc2c[nH]c3nc(N)nc(N)c23)c1 [Compound 5, 2,4-diamino-5-[(2′,5′-diethoxyanilino)methyl]pyrrolo[2,3-d]pyrimidine]
IC50 (Pc DHFR [1]; [3]): > 21 µM | IC50 (RL DHFR; [4]): 70 µM | IC50 (Tg DHFR; [5]): 5.3 µM

SMILES: Nc1nc(N)c2c(CNc3ccc(Cl)c(Cl)c3)c[nH]c2n1 [Compound 6, 2,4-diamino-5-[(3′,4′dichloroanilino)methyl]pyrrolo[2,3-d]pyrimidine]
IC50 (Pc DHFR [1]; [3]): 35.3 µM | IC50 (RL DHFR; [4]): 14.4 µM | IC50 (Tg DHFR; [5]): 1.4 µM

SMILES: Nc1nc(N)c2c(CNc3ccccc3)cnc-2[nH]1 [Compound 8, 2,4-diamino-5-(anilinomethyl)pyrrolo[2,3-d]pyrimidine]
Selectivity Ratio: RL DHFR/Pc DHFR (Pc DHFR [1]; Table 7, IC50 RL DHFR divided by IC50 Pc DHFR): >1 | IC50 (Pc DHFR [1]; [3]): 252 µM | IC50 (RL DHFR; [4]): > 252 µM | Selectivity Ratio: RL DHFR/Tg (Tg DHFR; Table 7): >65 | IC50 (Tg DHFR; [5]): 3.9 µM

SMILES: Nc1nc(N)c2c(CSc3ccccc3)coc2n1 [Compound 159, 2-4-Diamino-5-[(phenylthio)methyl]furo[2,3-d]pyrimidine]
IC50 (RL DHFR; [6]): 252 µM

SMILES: Nc1nc(N)c2c(CNc3cccc4ccccc34)coc2n1 [Compound 162, 2,4-Diamino-5-[(1-naphthylamino)methyl]furo[2,3-d]pyrimidine]
IC50 (Pc DHFR [1]; [7]): 13.5 µM | IC50 (Pc DHFR [1]; [8]): 13.5 µM | IC50 (Tg DHFR; [9]): 37 µM

SMILES: Nc1nc(N)c2c(CNc3ccc(Oc4ccccc4)cc3)coc2n1 [Compound 166, 2,4-Diamino-5-[(4′-phenoxyanilino)methyl]furo[2,3-d]pyrimidine]
IC50 (Tg DHFR; [11]): 32.4 µM | IC50 (Tg DHFR; [9]): 32.4 µM

Now from value to molecule, other results behind:

IC50 (Pc DHFR [1]; [3]): > 23 µM | Selectivity Ratio: RL DHFR/Pc DHFR (Pc DHFR [2]): <2.4 | IC50 (RL DHFR; [4]): 56.3 µM
SMILES: COc1cc(NCc2c[nH]c3nc(N)nc(N)c23)cc(OC)c1OC [Compound 1, 2,4-diamino-5-[(3′,4′,5′-trimethoxyanilino)methyl]pyrrolo[2,3-d]pyrimidine]
Selectivity Ratio: RL DHFR/Tg (Tg DHFR; Table 7): 7.0 | IC50 (Tg DHFR; [5]): 8.1 µM

IC50 (RL DHFR; [4]): 156 µM
SMILES: COc1ccc(OC)c(NCc2cnc3[nH]c(N)nc(N)c2-3)c1 [Compound 4, 2,4-diamino-5-[(2′,5′-dimethoxyanilino)methyl]pyrrolo[2,3-d]pyrimidine]
IC50 (Tg DHFR; [5]): 1.7 µM

IC50 (RL DHFR; [6]): 23 µM
SMILES: Nc1nc(N)c2c(CSc3cccc4ccccc34)coc2n1 [Compound 160, 2,4-Diamino-5-[(1-naphthylthio)methyl]furo[2,3-d]pyrimidine]

IC50 (Pc DHFR [1]): 0.66 µM | IC50 (Pc DHFR [1]; [7]): 0.65 µM | IC50 (Pc DHFR [1]; [8]): 0.65 µM | IC50 (RL DHFR; [6]): 12.3 µM
SMILES: Nc1nc(N)c2c(CSc3ccc4ccccc4c3)coc2n1 [Compound 161, 2,4-Diamino-5-[(2-naphthylthio)methyl]furo[2,3-d]pyrimidine]

IC50 (Pc DHFR [1]; [7]): 41 µM | IC50 (Pc DHFR [1]; [8]): 41 µM | Selectivity ratio rl/pc (Pc DHFR [2]; IC50 rlDHFR/IC50 pcDHFR): 0.89 | Selectivity Ratio RL/Pc (Pc DHFR [2]; Table 16): 0.89 | IC50 (RL DHFR; [10]): 36.5 µM | IC50 (RL DHFR; [6]): 36.5 µM
SMILES: Nc1nc(N)c2c(CNc3ccc4ccccc4c3)coc2n1 [Compound 163, 2-4-Diamino-5-[(2-naphthylamino)methyl]furo[2,3-d]pyrimidine]
Selectivity ratio rl/tg (Tg DHFR; IC50 rlDHFR/IC50 tgDHFR): 0.96 | Selectivity Ratio RL/Tg (Tg DHFR; Table 16): 0.96 | IC50 (Tg DHFR; [11]): 38 µM | IC50 (Tg DHFR; [9]): 38 µM

IC50 (Pc DHFR [1]; [7]): > 12 µM | IC50 (Pc DHFR [1]; [8]): > 12 µM | IC50 (RL DHFR; [10]): > 12 µM | IC50 (RL DHFR; [6]): > 12 µM
SMILES: Nc1nc(N)c2c(CNc3ccccc3Oc3ccccc3)coc2n1 [Compound 165, 2,4-Diamino-5-[(2′-phenoxyanilino)methyl]furo[2,3-d]pyrimidine]
IC50 (Tg DHFR; [11]): > 12 µM | IC50 (Tg DHFR; [9]): > 12 µM
